Activity calls are given as the source filed them. The calls are words filed in the database; no cut-off is given here.
Assays:
[1] = molecular target: T1, Falcipain-3 (Plasmodium falciparum 3D7, UniProt Q8IIL0); test: Inhibition of Plasmodium falciparum FP3 using Z-Leu-Arg-AMC as substrate incubated for 30 mins by spectrofluorometry analysis
T1 sequence (Q8IIL0 whole entry): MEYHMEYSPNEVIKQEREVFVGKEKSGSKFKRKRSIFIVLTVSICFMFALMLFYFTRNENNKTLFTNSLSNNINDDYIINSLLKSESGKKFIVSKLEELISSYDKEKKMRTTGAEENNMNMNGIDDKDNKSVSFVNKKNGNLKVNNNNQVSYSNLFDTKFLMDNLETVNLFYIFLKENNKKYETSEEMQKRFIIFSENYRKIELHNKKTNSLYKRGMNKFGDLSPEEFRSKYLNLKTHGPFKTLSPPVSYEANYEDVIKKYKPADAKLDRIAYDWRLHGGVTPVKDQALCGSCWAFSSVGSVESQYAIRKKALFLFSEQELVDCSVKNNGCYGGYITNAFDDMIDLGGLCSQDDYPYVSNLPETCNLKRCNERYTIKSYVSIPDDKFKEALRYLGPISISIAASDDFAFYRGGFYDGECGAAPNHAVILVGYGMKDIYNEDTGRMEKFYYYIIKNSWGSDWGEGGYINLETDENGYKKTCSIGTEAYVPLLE

[2] = molecular target: T2, Falcipain 2 (Plasmodium falciparum, UniProt Q9N6S8); test: Inhibition of Plasmodium falciparum FP2 using Z-Leu-Arg-AMC as substrate incubated for 30 mins by spectrofluorometry analysis
T2 sequence (Q9N6S8 whole entry): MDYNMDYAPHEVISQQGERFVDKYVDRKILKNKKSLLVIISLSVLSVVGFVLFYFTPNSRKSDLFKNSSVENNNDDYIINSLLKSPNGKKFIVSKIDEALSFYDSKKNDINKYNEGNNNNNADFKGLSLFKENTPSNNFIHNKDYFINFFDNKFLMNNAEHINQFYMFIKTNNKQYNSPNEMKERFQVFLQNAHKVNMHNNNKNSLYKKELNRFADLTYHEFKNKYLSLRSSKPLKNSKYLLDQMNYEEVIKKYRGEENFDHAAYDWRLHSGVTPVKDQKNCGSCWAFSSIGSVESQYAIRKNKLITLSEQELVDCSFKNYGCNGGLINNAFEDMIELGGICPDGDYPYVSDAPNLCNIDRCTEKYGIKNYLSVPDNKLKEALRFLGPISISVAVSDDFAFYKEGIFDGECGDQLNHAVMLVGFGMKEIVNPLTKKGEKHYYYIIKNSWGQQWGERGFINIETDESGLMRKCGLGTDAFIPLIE

[3] = system: Erythrocyte; test: Hemolytic activity in human RBCs at 100 uM incubated for 2 hrs by microplate reader analysis; format: toxicity, cell-based
[4] = system: Plasmodium falciparum; test: Antimalarial activity against Plasmodium falciparum 3D7 assessed as reduction in parasite growth incubated for 48 to 50 hrs by microplate reader analysis; format: functional, organism-based; details: Plasmodium falciparum, 3D7; read-out: IC50
[5] = system: Plasmodium falciparum; test: Antimalarial activity against Plasmodium falciparum 3D7 assessed as decrease in development of early trophozoite stage at 3 times IC50 incubated for 48 hrs by Geimsa staining based analysis; format: functional, organism-based
[6] = Selectivity index, ratio of IC50 for cytotoxicity against human A549 cells to IC50 for antimalarial activity against Plasmodium falciparum W2; format: toxicity, cell-based; details: read-out: Ratio IC50
[7] = system: A549; test: Anticancer activity against human A549 cells measured after 24 hrs by MTT assay; format: functional, cell-based; details: A549, 24 h
[8] = Selectivity index, ratio of IC50 for cytotoxicity against african green monkey vero cells to IC50 for antimalarial activity against Plasmodium falciparum W2; format: toxicity, cell-based; details: read-out: Ratio IC50
[9] = Selectivity index, ratio of IC50 for cytotoxicity against african green monkey vero cells to IC50 for cytotoxicity against human A549 cells
[10] = Selectivity index, ratio of IC50 for cytotoxicity against african green monkey vero cells to IC50 for antimalarial activity against Plasmodium falciparum 3D7; format: toxicity, cell-based; details: read-out: Ratio IC50
[11] = system: Plasmodium falciparum; test: Resistance index, ratio of IC50 for antimalarial activity against Plasmodium falciparum 3D7 to IC50 for antimalarial activity against Plasmodium falciparum W2; format: functional
[12] = system: Vero; test: Cytotoxicity against african green monkey Vero cells upto 1000 uM measured after 72 hrs by MTT assay; format: toxicity, cell-based; details: chlorocebus sabaeus
[13] = system: Plasmodium falciparum; test: Antimalarial activity against Plasmodium falciparum 3D7 assessed as decrease in new ring formation at 3 times IC50 concentration incubated for 48 hrs by Geimsa staining based analysis; format: functional, organism-based
[14] = system: Plasmodium falciparum; test: Antimalarial activity against Plasmodium falciparum W2 assessed as reduction in parasite growth incubated for 48 to 50 hrs by microplate reader analysis; format: functional, organism-based
[15] = Selectivity index, ratio of IC50 for cytotoxicity against human A549 cells to IC50 for antimalarial activity against Plasmodium falciparum 3D7; format: toxicity, cell-based; details: read-out: Ratio IC50
[16] = system: Plasmodium falciparum; test: Antimalarial activity against Plasmodium falciparum 3D7 assessed as inhibition of parasite growth incubated for 72 hrs by confocal microscopy analysis; format: functional, organism-based; details: 3D7, 72 h
[17] = system: Plasmodium falciparum; test: Antimalarial activity against Plasmodium falciparum Dd2 assessed as inhibition of parasite growth incubated for 72 hrs by confocal microscopy analysis; format: functional, organism-based; details: Dd2, 72 h

SMILES | IC50 [1] [µM] | IC50 [2] [µM] | Activity [3] | IC50 [4] [µM] | selectivity ratio [6] | IC50 [7] [µM] | selectivity ratio [8] | Ratio IC50 [9] | selectivity ratio [10] | Ratio IC50 [11] | Activity [12] | IC50 [14] [µM] | selectivity ratio [15] | other results
CC(C)C[C@H](NC(=O)[C@H]1O[C@@H]1C(=O)O)C(=O)NCCCCN=C(N)N [E-64] | 0.116 | 0.0544 | – | – | – | – | – | – | – | – | – | – | – | –
COc1cccc(C(c2ccc(F)c(Cl)c2)N2CCN(c3cnccn3)CC2)c1O (stereo unspecified) | – | – | Non-Toxic | 7.32 | – | – | – | – | – | – | – | – | – | –
COc1ccc(C(c2ccccc2O)N2CCN(c3cnccn3)CC2)cc1 (stereo unspecified) | 33.9 | 31.1 | Non-Toxic | 17.2 | 240 | 514 | 467 | 1.95 | 58.1 | 8.04 | Non-Toxic | 2.14 | 29.9 | Activity [5]: Active; Activity [13]: Active
COc1cccc(C(c2ccc(Cl)c(Cl)c2)N2CCN(c3cnccn3)CC2)c1O (stereo unspecified) | – | – | Non-Toxic | 4.62 | – | – | – | – | – | – | – | – | – | –
Oc1ccccc1C(c1ccc(C(F)(F)F)cc1)N1CCN(c2cnccn2)CC1 (stereo unspecified) | 9.6 | 8.5 | Non-Toxic | 1.78 | 1.89 | 59.5 | 31.9 | 16.8 | 562 | 0.06 | Non-Toxic | 31.4 | 33.4 | Activity [5]: Active; Activity [13]: Active
FC(F)Oc1ccc(-c2nnc3cncc(OCCc4ccccc4)n23)cc1 | – | – | – | – | – | – | – | – | – | – | – | – | – | IC50 [16]: 0.31 µM; IC50 [17]: 0.54 µM
COc1cccc(C(c2ccc(F)c(F)c2)N2CCN(c3cnccn3)CC2)c1O (stereo unspecified) | 27.6 | 24.3 | Non-Toxic | 13.5 | 26.1 | 203 | 129 | 4.92 | 74.1 | 1.73 | Non-Toxic | 7.78 | 15.1 | –
COc1cccc(C(c2ccc(C)cc2)N2CCN(c3cnccn3)CC2)c1O (stereo unspecified) | – | – | Non-Toxic | > 12.5 | – | – | – | – | – | – | – | – | – | –
Cc1ccc(C(c2ccccc2O)N2CCN(c3cnccn3)CC2)cc1 (stereo unspecified) | – | – | Non-Toxic | 3.76 | – | – | – | – | – | – | – | – | – | –
CCN(CC)CCCC(C)Nc1ccnc2cc(Cl)ccc12 (stereo unspecified) [CHLOROQUINE] | – | – | Non-Toxic | – | – | – | – | – | – | – | – | – | – | –

Source: ChEMBL document CHEMBL5335837, “Reinvestigation of diphenylmethylpiperazine analogues of pyrazine as new class of Plasmodial cysteine protease inhibitors for the treatment of malaria” (RSC Med Chem, 2024)
